Reference: ChEMBL document CHEMBL1201862, “PubChem BioAssay data set” (2004)
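Interpolation was linear, between the two tested concentrations surrounding the appropriate level; five concentrations were tested over 48 hours in 96-well plates. Here, GI50 denotes the concentration required for 50% inhibition of growth.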 Active and inactive are the calls of the source. Cut-off read from the data, not from the text of the source: active = GI50 up to about 1.1 µM and inactive = higher.

Key:
Test in all cases: growth of human tumour cells (NCI), 48 h
UO-31 = tested on: UO-31
PC-3 = tested on: PC-3
ACHN = tested on: ACHN
Hs-578T = tested on: Hs-578T
HOP-62 = tested on: HOP-62
OVCAR-5 = tested on: OVCAR-5
NCI-H460 = tested on: NCI-H460
NCI-H226 = tested on: NCI-H226
HCC 2998 = tested on: HCC 2998
UACC-62 = tested on: UACC-62
NCI/ADR-RES = tested on: NCI/ADR-RES
CCRF-CEM = tested on: CCRF-CEM
T47D = tested on: T47D
NCI-H23 = tested on: NCI-H23
HT-29 = tested on: HT-29
SN12C = tested on: SN12C
SF-268 = tested on: SF-268
DU-145 = tested on: DU-145
SNB-75 = tested on: SNB-75
MDA-MB-435 = tested on: MDA-MB-435
OVCAR-8 = tested on: OVCAR-8
BT-549 = tested on: BT-549
SR = tested on: SR
HCT-15 = tested on: HCT-15
TK-10 = tested on: TK-10
RXF 393 = tested on: RXF 393
HOP-92 = tested on: HOP-92
A498 = tested on: A498
M14 = tested on: M14
SK-MEL-2 = tested on: SK-MEL-2
K562 = tested on: K562
KM12 = tested on: KM12
LOX IMVI = tested on: LOX IMVI
IGROV-1 = tested on: IGROV-1
NCI-H522 = tested on: NCI-H522
SW-620 = tested on: SW-620
786-0 = tested on: 786-0
EKVX = tested on: EKVX
MDA-N = tested on: MDA-N
SF-295 = tested on: SF-295
A549 = tested on: A549
CAKI-1 = tested on: CAKI-1
Malme-3M = tested on: Malme-3M
OVCAR-3 = tested on: OVCAR-3
U-251 = tested on: U-251
HCT-116 = tested on: HCT-116
MOLT-4 = tested on: MOLT-4
OVCAR-4 = tested on: OVCAR-4
SK-MEL-5 = tested on: SK-MEL-5
MDA-MB-231 = tested on: MDA-MB-231
SK-MEL-28 = tested on: SK-MEL-28
UACC-257 = tested on: UACC-257
SNB-19 = tested on: SNB-19
COLO 205 = tested on: COLO 205
RPMI-8226 = tested on: RPMI-8226
MCF7 = tested on: MCF7
SK-OV-3 = tested on: SK-OV-3
SF-539 = tested on: SF-539

NCCSCc1ccccc1Cl
GI50 (UO-31): > 100 µM (inactive)
GI50 (PC-3): 30.3 µM (inactive)
GI50 (ACHN): > 100 µM (inactive)
GI50 (Hs-578T): 73.5 µM (inactive)
GI50 (HOP-62): 40.6 µM (inactive)
GI50 (OVCAR-5): > 100 µM (inactive)
GI50 (NCI-H460): 31.3 µM (inactive)
GI50 (NCI-H226): > 100 µM (inactive)
GI50 (HCC 2998): 18.6 µM (inactive)
GI50 (UACC-62): 53.6 µM (inactive)
GI50 (NCI/ADR-RES): > 100 µM (inactive)
GI50 (CCRF-CEM): 25.2 µM (inactive)
GI50 (T47D): 42.4 µM (inactive)
GI50 (NCI-H23): 30.1 µM (inactive)
GI50 (HT-29): 36.1 µM (inactive)
GI50 (SN12C): 43.4 µM (inactive)
GI50 (SF-268): 95.7 µM (inactive)
GI50 (DU-145): 43 µM (inactive)
GI50 (SNB-75): 37.5 µM (inactive)
GI50 (MDA-MB-435): 36 µM (inactive)
GI50 (OVCAR-8): 43.3 µM (inactive)
GI50 (BT-549): 69.7 µM (inactive)
GI50 (SR): 18.6 µM (inactive)
GI50 (HCT-15): > 100 µM
GI50 (TK-10): 26.4 µM (inactive)
GI50 (RXF 393): 83.8 µM (inactive)
GI50 (HOP-92): 68.2 µM (inactive)
GI50 (A498): 27 µM (inactive)
GI50 (M14): 63.4 µM (inactive)
GI50 (SK-MEL-2): 30.6 µM (inactive)
GI50 (K562): 26.9 µM (inactive)
GI50 (KM12): 47.3 µM (inactive)
GI50 (LOX IMVI): 25.7 µM (inactive)
GI50 (IGROV-1): 51.4 µM (inactive)
GI50 (NCI-H522): 48.2 µM (inactive)
GI50 (SW-620): 33.4 µM (inactive)
GI50 (786-0): 42.7 µM (inactive)
GI50 (EKVX): 34.3 µM (inactive)
GI50 (MDA-N): 30.5 µM (inactive)
GI50 (SF-295): 41.1 µM (inactive)
GI50 (A549): > 100 µM (inactive)
GI50 (CAKI-1): > 100 µM (inactive)
GI50 (Malme-3M): 65.8 µM (inactive)
GI50 (OVCAR-3): 28.9 µM (inactive)
GI50 (U-251): 31.6 µM (inactive)
GI50 (HCT-116): 46.9 µM (inactive)
GI50 (MOLT-4): 31 µM (inactive)
GI50 (OVCAR-4): 64.9 µM (inactive)
GI50 (SK-MEL-5): 63 µM (inactive)
GI50 (MDA-MB-231): 45.6 µM (inactive)
GI50 (SK-MEL-28): 64.6 µM (inactive)
GI50 (UACC-257): 23.3 µM (inactive)
GI50 (SNB-19): 80.4 µM (inactive)

Cc1ccc(N/C(SCc2ccccc2)=C(\C(Cl)=C(Cl)Cl)[N+](=O)[O-])c(C)c1
GI50 (UO-31): 20 µM (inactive)
GI50 (PC-3): 37.2 µM (inactive)
GI50 (ACHN): 43 µM (inactive)
GI50 (Hs-578T): 39.1 µM (inactive)
GI50 (HOP-62): 8.13 µM (inactive)
GI50 (OVCAR-5): 19.6 µM (inactive)
GI50 (NCI-H460): 41.7 µM (inactive)
GI50 (COLO 205): 17.8 µM (inactive)
GI50 (NCI-H226): 45.2 µM (inactive)
GI50 (HCC 2998): 45.6 µM (inactive)
GI50 (UACC-62): 23.6 µM (inactive)
GI50 (NCI/ADR-RES): 21.2 µM (inactive)
GI50 (CCRF-CEM): 31 µM (inactive)
GI50 (T47D): 18.1 µM (inactive)
GI50 (RPMI-8226): 21.1 µM (inactive)
GI50 (NCI-H23): 19.5 µM (inactive)
GI50 (HT-29): 29.8 µM (inactive)
GI50 (SN12C): 20.4 µM (inactive)
GI50 (SF-268): 14.3 µM (inactive)
GI50 (DU-145): 6.31 µM (inactive)
GI50 (SNB-75): 29.2 µM (inactive)
GI50 (MDA-MB-435): 7.21 µM (inactive)
GI50 (OVCAR-8): 18.5 µM (inactive)
GI50 (BT-549): 19.2 µM (inactive)
GI50 (HCT-15): 17.7 µM
GI50 (MCF7): 35.3 µM (inactive)
GI50 (A498): 22.2 µM (inactive)
GI50 (M14): 16.9 µM (inactive)
GI50 (SK-MEL-2): 39.6 µM (inactive)
GI50 (KM12): 17.2 µM (inactive)
GI50 (SW-620): 15.6 µM (inactive)
GI50 (786-0): 23.6 µM (inactive)
GI50 (EKVX): 33.4 µM (inactive)
GI50 (MDA-N): 22.2 µM (inactive)
GI50 (SF-295): 23.7 µM (inactive)
GI50 (A549): 27.1 µM (inactive)
GI50 (CAKI-1): 18.6 µM (inactive)
GI50 (SK-OV-3): 39.8 µM (inactive)
GI50 (Malme-3M): 21.4 µM (inactive)
GI50 (OVCAR-3): 8.26 µM (inactive)
GI50 (U-251): 15.6 µM (inactive)
GI50 (HCT-116): 16.8 µM (inactive)
GI50 (MOLT-4): > 100 µM (inactive)
GI50 (OVCAR-4): 10.8 µM (inactive)
GI50 (MDA-MB-231): 14.6 µM (inactive)
GI50 (SK-MEL-28): 23.8 µM (inactive)
GI50 (UACC-257): 43.9 µM (inactive)
GI50 (SF-539): 19.9 µM (inactive)
GI50 (SNB-19): 30.4 µM (inactive)
